pIC50: −log10 of the molar value. Read-outs that look alike come from different tables or passages of the source.

Broadly, the pIC50 is the negative decadic logarithm of the IC50, by convention in mol/L.

The assay concerns the target T1, CYP51 (CaCYP51), lanosterol 14α-demethylase (Candida albicans, UniProt P10613).
T1 construct: gene ERG11; recombinant CaCYP51
The experiment in a line: CYP51 reconstitution assay with CPR and NADPH, GC-MS of demethylated sterols. In kind it is biochemical.

T1 sequence (P10613 whole entry): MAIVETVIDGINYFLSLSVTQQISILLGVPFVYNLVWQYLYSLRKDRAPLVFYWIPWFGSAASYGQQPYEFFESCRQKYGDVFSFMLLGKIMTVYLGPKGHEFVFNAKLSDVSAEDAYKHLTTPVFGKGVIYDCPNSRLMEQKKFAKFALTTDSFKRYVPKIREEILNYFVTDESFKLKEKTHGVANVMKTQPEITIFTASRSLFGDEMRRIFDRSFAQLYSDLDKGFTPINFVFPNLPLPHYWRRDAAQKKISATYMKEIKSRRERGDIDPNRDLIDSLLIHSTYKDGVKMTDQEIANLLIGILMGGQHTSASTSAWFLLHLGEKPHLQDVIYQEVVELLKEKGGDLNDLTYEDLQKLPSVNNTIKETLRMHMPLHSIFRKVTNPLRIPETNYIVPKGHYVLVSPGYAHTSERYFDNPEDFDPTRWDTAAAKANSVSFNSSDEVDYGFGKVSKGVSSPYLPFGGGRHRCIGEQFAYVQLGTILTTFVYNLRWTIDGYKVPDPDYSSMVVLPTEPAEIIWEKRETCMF

The compound `OC(CN1CCC(Nc2ncc(F)cn2)CC1)(Cn1cncn1)c1ccc(F)cc1F` (racemic) [compound 7, 2-(2,4-Difluorophenyl)-1-(4-((5-fluoropyrimidin-2-Yl)-amino)-piperidin-1-Yl)-3-(1h-1,2,4-triazol-1-Yl)-propan-2-Ol] gave a pIC50 of roughly 6.40.
As for `OC(Cn1cncn1)(Cn1cncn1)c1ccc(F)cc1F` [fluconazole], under “read-out: IC50”, the pIC50 was roughly 6.22.
